Measured values from article PMC9967118, “Influence of Mutations of Conserved Arginines on Neuropeptide Binding in the DPP III Active Site” (Molecules, 2023).
Like-named read-outs stand apart in the source and are kept apart here. Each block holds one molecule with its values, some of them ahead of it. Where no end group is shown, it is not given here.

Experiments:
[1] = target: T1, Human DPP3 wild-type (WT) (Homo sapiens, UniProt Q9NY33); experiment: Inhibition of DPP III catalyzed hydrolysis of Arg2-2NA, wild-type enzyme; type: biochemical
T1 construct: made in house; host or cells: E. coli
T1 sequence (Q9NY33 1-737): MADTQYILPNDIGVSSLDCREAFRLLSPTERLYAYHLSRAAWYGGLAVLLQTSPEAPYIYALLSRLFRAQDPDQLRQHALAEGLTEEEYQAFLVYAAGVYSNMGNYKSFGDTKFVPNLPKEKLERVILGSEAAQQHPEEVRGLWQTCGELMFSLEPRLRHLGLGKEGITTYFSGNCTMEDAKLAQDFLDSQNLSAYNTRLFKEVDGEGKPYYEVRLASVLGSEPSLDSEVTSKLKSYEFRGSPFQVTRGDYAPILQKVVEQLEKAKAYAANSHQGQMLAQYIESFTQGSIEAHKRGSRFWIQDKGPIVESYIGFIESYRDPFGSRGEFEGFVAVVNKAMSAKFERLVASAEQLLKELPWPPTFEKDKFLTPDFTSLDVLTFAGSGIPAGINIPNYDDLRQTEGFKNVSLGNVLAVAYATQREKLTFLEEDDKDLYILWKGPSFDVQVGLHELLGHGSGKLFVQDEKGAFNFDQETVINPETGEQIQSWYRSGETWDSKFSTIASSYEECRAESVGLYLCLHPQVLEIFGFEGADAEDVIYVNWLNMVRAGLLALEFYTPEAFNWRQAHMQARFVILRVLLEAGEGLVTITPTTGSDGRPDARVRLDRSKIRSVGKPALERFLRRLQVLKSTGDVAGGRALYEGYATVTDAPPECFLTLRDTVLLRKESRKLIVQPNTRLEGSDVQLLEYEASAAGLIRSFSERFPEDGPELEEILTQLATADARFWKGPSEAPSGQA
Method: (§1) Human DPP3 wild-type (WT) and variants R669A and R669M were expressed in E. coli and purified using IMAC, as described in detail recently. Briefly, variants were prepared using a QuikChange II site-directed mutagenesis kit (Agilent Technologies, Santa Clara, CA, USA) while following the manufacturer’s instructions, with the hDPP3 gene on a pET21a plasmid as template. Complementary primer pairs were ordered from Macrogen Europe (The Netherlands) with the following sequences:
(§2) Proteins were expressed in E. coli for approximately 20 h at 18 °C, shaken at 120 rpm, and paired with 0.25 mM IPTG as an expression inductor. Cell pellets were lysed with lysosyme and with sonication; the lysate was then purified with DNAse I and through centrifugation, and affinity chromatography was performed on a Rotigarose His/Ni column. Lysis, wash, and elution buffers contained imidazole at concentrations of 10 mM, 20 mM, and 300 mM, respectively, and all buffers contained 50 mM Tris pH = 8.0, 300 mM NaCl. Fractions were pooled based on protein concentration (determined by using a BioDrop microvolume spectrophotometer) and purity (assessed by SDS-PAGE), and they were desalted on a PD-10 column with 20 mM Tris-Cl buffer, pH = 7.5. Aliquots were frozen and stored at −80 °C.
(§3) Enzyme kinetics were measured using an Agilent Cary Eclipse fluorescence spectrophotometer (Agilent Technologies, Santa Clara, CA, USA) with Arg2-2NA as a substrate analog and fluorescent 2NA as the product of the peptidase reaction. The assay has been described in detail previously. Arg2-2NA and peptide in 20 mM Tris-Cl buffer pH = 7.4 were pre-incubated at 25 °C for 2 min before the reaction was started by adding the enzyme into the cuvette. Substrate concentrations ranged from 0.25 to 100 μM. The peptide (inhibitor) concentrations were chosen so the output could be easily measured. […] Three peptide concentrations were used for each peptide. The enzyme concentration was 1 nM in all measurements.

[2] = target: T2, Human DPP3 variant R669M (Homo sapiens, UniProt Q9NY33, R669M); experiment: Inhibition of DPP III catalyzed hydrolysis of Arg2-2NA, R669M variant; type: biochemical
T2 construct: made in house; host or cells: E. coli
T2 sequence (Q9NY33 1-737 R669M): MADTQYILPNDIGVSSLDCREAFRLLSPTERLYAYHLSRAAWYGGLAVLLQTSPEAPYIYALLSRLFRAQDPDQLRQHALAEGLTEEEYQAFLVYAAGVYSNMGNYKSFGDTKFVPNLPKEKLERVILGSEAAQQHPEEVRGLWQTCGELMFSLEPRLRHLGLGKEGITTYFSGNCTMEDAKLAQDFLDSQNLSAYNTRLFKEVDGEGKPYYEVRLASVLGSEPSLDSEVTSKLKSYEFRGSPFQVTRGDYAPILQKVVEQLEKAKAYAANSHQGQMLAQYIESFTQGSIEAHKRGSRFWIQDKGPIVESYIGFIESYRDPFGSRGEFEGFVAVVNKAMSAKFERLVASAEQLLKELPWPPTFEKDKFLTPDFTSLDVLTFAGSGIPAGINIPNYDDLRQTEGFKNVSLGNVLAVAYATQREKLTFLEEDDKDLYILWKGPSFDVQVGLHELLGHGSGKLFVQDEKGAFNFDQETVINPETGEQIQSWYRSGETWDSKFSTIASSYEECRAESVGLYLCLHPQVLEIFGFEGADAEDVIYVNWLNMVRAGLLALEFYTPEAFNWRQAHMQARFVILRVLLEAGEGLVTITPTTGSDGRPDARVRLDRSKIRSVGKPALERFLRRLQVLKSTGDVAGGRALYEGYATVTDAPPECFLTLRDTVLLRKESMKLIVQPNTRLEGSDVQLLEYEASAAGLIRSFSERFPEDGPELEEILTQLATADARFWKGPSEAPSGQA
Method: as §1, §2, §3

[3] = target: T3, Human DPP3 variant R669A (Homo sapiens, UniProt Q9NY33, R669A); experiment: Inhibition of DPP III catalyzed hydrolysis of Arg2-2NA, R669A variant; type: biochemical
T3 construct: made in house; host or cells: E. coli
T3 sequence (Q9NY33 1-737 R669A): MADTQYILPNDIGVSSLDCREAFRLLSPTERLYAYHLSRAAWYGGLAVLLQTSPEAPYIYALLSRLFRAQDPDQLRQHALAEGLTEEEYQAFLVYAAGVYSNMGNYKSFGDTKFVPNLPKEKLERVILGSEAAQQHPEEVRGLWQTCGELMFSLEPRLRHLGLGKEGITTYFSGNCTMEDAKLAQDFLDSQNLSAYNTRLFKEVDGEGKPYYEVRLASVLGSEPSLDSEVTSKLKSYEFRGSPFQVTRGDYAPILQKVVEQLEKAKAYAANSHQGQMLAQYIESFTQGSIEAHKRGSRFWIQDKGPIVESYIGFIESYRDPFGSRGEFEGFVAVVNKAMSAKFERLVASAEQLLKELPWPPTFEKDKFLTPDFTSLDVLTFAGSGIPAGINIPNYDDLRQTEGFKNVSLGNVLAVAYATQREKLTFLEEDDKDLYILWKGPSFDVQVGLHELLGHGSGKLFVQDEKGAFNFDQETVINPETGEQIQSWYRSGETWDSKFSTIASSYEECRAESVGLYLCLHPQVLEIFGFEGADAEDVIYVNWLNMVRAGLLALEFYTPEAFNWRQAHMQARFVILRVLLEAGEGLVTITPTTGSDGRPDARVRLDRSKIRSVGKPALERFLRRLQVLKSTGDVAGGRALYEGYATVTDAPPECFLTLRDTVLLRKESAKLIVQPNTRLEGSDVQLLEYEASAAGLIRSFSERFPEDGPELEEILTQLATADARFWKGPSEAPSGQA
Method: as §1, §2, §3

[4] = target: T2, Human DPP3 variant R669M; experiment: Michaelis–Menten test for the hydrolysis of Arg2-2NA, R669M variant; type: biochemical; conditions: enzyme 1 nM, 20 mM Tris-Cl pH 7.4, 25 °C, best fit ± standard error
Method: as §1
as §2, with “Lysis, wash, and elution buffers contained imidazole at concentrations of 10 mM, 20 mM, and 300 mM, respectively, and all buffers contained 50 mM Tris pH = 8.0, 300 mM NaCl.” left out, “Aliquots were frozen and stored at −80 °C.” left out
(§4) Enzyme kinetics were measured using an Agilent Cary Eclipse fluorescence spectrophotometer (Agilent Technologies, Santa Clara, CA, USA) with Arg2-2NA as a substrate analog and fluorescent 2NA as the product of the peptidase reaction. […] The peptide (inhibitor) concentrations were chosen so the output could be easily measured. […]

[5] = target: T1, Human DPP3 wild-type (WT); experiment: Michaelis–Menten test for the hydrolysis of Arg2-2NA, wild-type enzyme; type: biochemical; conditions: enzyme 1 nM, 20 mM Tris-Cl pH 7.4, 25 °C, best fit ± standard error
Method: as §1
as §2, with “Lysis, wash, and elution buffers contained imidazole at concentrations of 10 mM, 20 mM, and 300 mM, respectively, and all buffers contained 50 mM Tris pH = 8.0, 300 mM NaCl.” left out, “Aliquots were frozen and stored at −80 °C.” left out
as §4

[6] = target: T3, Human DPP3 variant R669A; experiment: Michaelis–Menten test for the hydrolysis of Arg2-2NA, R669A variant; type: biochemical; conditions: enzyme 1 nM, 20 mM Tris-Cl pH 7.4, 25 °C, best fit ± standard error
Method: as §1
as §2, with “Lysis, wash, and elution buffers contained imidazole at concentrations of 10 mM, 20 mM, and 300 mM, respectively, and all buffers contained 50 mM Tris pH = 8.0, 300 mM NaCl.” left out, “Aliquots were frozen and stored at −80 °C.” left out
as §4

[7] = tested on: DPP III; conditions: human renal epithelial cells; cited from earlier work
Text: (§5) Dipeptidyl peptidase III (DPP III, EC 3.4.14.4) is a monozinc metallopeptidase that hydrolyzes dipeptides from the N-terminus of its substrates consisting of three or more amino acids. DPP III is the only member of the M49 metallopeptidase family and the only metalloenzyme among dipeptidyl peptidases. This two-domain exopeptidase is broadly distributed in human tissues, where it participates in the final stages of protein turnover.

[8] = tested on: human DPP III (hDPP III); design: method as in 2 sources, one per row (each row's own in cited_ref): ref 17 = [17]; PMID 35163780; doi:10.3390/ijms23031858; 17. Tomić A. Tomić S. Demystifying DPP III Catalyzed Peptide Hydrolysis—Computational Study of the Complete Catalytic Cycle of Human DPP III Catalyzed Tynorphin Hydrolysis Int. J. Mol. Sci. 2022 23 18 ||| ref 18 = [18]; PMID 36116590; doi:10.1016/j.ijbiomac.2022.09.119; 18. Karačić Z. Šupljika F. Tomić A. Brkljačić L. Paić A.T. Ćehić M. Tomić S. Neuropeptides, Substrates and Inhibitors of Human Dipeptidyl Peptidase III, Experimental and Computational Study—A New Subs; conditions: computational and experimental study of neuropeptides; cited from earlier work
Text: Despite the efforts of numerous scientists, knowledge about the role that DPP III might play in various physiological processes is still unclear. […] In this and in QM/MM studies ...

[9] = tested on: angiotensin II-infused hypertensive mice; conditions: cited from earlier work
Text: as §5

[10] = substrate 0.25–100 μM, fluorescence of 2NA
[11] = WT hDPP III 1 nM, substrate Arg2-2NA 0.25–100 μM, 20 mM Tris-Cl pH 7.4, 25 °C, 2 min pre-incubation, fluorescence of 2NA, competitive inhibition, best fit ± standard error, inhibitor tynorphin 1–50 nM, valorphin 15–150 nM
[12] = R669M hDPP III 1 nM, substrate Arg2-2NA 0.25–100 μM, 20 mM Tris-Cl pH 7.4, 25 °C, 2 min pre-incubation, fluorescence of 2NA, competitive inhibition, best fit ± standard error, tynorphin 1–5 μM, valorphin 0.75–11.2 μM

Molecule: CC(C)C[C@H](NC(=O)[C@H](Cc1ccccc1)NC(=O)CNC(=O)CNC(=O)[C@@H](N)Cc1ccc(O)cc1)C(=O)O [Leu-enkephalin]
- Ki [1]: 10400 ± 1400 nM
- Ki [2]: 58000 ± 7000 nM
- effects of the R669M and R669A mutations on the Ki ([2]; R669M versus R669A): the same
- Ki [3]: 52000 ± 5300 nM

- effect of mutation of R669 to Ala or Met on inhibitory properties / binding ([3]; R669A or R669M versus WT, inhibitory assays): small
- kcat [4]: 2.26 ± 0.03 s⁻¹
- Km [4, 10]: 2.8 ± 0.2 µM
- kcat [5]: 3.74 ± 0.07 s⁻¹
- Km [5, 10]: 7.8 ± 0.6 µM
- kcat [6]: 2.24 ± 0.05 s⁻¹
- Km [6, 10]: 3.4 ± 0.3 µM
Molecule: Arg2-2NA

Molecule: VVYPW [tynorphin]
- Ki [1, 11]: 11.2 ± 0.8 nM
- Ki [2, 12]: 102 ± 16 nM
- Ki [3]: 328 ± 25 nM

Molecule: VVYPWTQ [valorphin]
- Ki [1, 11]: 36.5 ± 2.9 nM
- Ki [2, 12]: 406 ± 33 nM
- Ki [3]: 1210 ± 224 nM

Molecule: angiotensin (1–7): peptide degraded by DPP III in human renal epithelial cells (DRVYIHP; Angiotensin 1-7; UniProt P01019 25-31, looked up)
- degradation by DPP III [7]: DPP III degrades angiotensin (1–7)

Molecule: β-casomorphin
- in vitro substrate identification / substrate class with hDPP III [8]: in vitro substrates of hDPP III

B1: DPP III: zinc exopeptidase (EC 3.4.14.4), M49 family (protein, UniProt Q9NY33 2-737, looked up)
Dipeptidyl peptidase 3: ADTQYILPNDIGVSSLDCREAFRLLSPTERLYAYHLSRAAWYGGLAVLLQTSPEAPYIYALLSRLFRAQDPDQLRQHALAEGLTEEEYQAFLVYAAGVYSNMGNYKSFGDTKFVPNLPKEKLERVILGSEAAQQHPEEVRGLWQTCGELMFSLEPRLRHLGLGKEGITTYFSGNCTMEDAKLAQDFLDSQNLSAYNTRLFKEVDGEGKPYYEVRLASVLGSEPSLDSEVTSKLKSYEFRGSPFQVTRGDYAPILQKVVEQLEKAKAYAANSHQGQMLAQYIESFTQGSIEAHKRGSRFWIQDKGPIVESYIGFIESYRDPFGSRGEFEGFVAVVNKAMSAKFERLVASAEQLLKELPWPPTFEKDKFLTPDFTSLDVLTFAGSGIPAGINIPNYDDLRQTEGFKNVSLGNVLAVAYATQREKLTFLEEDDKDLYILWKGPSFDVQVGLHELLGHGSGKLFVQDEKGAFNFDQETVINPETGEQIQSWYRSGETWDSKFSTIASSYEECRAESVGLYLCLHPQVLEIFGFEGADAEDVIYVNWLNMVRAGLLALEFYTPEAFNWRQAHMQARFVILRVLLEAGEGLVTITPTTGSDGRPDARVRLDRSKIRSVGKPALERFLRRLQVLKSTGDVAGGRALYEGYATVTDAPPECFLTLRDTVLLRKESRKLIVQPNTRLEGSDVQLLEYEASAAGLIRSFSERFPEDGPELEEILTQLATADARFWKGPSEAPSGQA
- blood pressure [9]: lowering blood pressure
